Counter-ions that a name gives are not always drawn. Like-named read-outs stand apart in the source and are kept apart here.
Columns and labels:
[1] = system: carrageenin edema in Wistar-strain male rats; assay: Anti-inflammatory effect (carrageenin edema of the hind paw); type: in vivo; details: for inhibition in vivo at 10 mg/kg / inhibition in vivo at 50 mg/kg: Rattus norvegicus, po; for inhibition in vivo at 10 mg/kg: read-out: anti-inflammatory effect dose(mg/kg) 10 (inhibition percentage of carrageenin edema); for inhibition in vivo at 50 mg/kg: read-out: anti-inflammatory effect dose(mg/kg) 50 (inhibition percentage of carrageenin edema)
Procedure: 2. Anti-inflammatory effect
A group of five Wistar-strain male rats (100-150 g) were orally administered with each test compound suspended in 0.5% tragacanth-saline solution. After 30 minutes 0.5-1.0% carrageenin suspended in the water for injection was injected subcutaneously to a hind paw. After 3 hours the carrageenin edema was measured by volume and the inhibition percentage was determined with respect to the results for the control animals. The inhibition percentages were shown with the notations as follows: […]

[2] = system: writhing syndrome in dd-strain male mice; assay: Analgetic effect (acetic acid writhing syndrome); type: in vivo; details: Mus musculus, po, orally, 0.6% acetic acid writhing, Litchfield-Wilcoxon, read-out: analgetic effect ED50 (95 % C.L.)
Procedure: 3. Analgetic effect Each test compound suspended in 0.5% tragacanth-saline solution was orally administered to dd-strain male mice (18-20 g). After one hour 0.6% acetic acid solution was intraperitoneally injected in a volume of 0.1 ml/10 g.

[3] = system: righting reflex of dd-strain male mice; assay: Central nervous system depressive effect (disappearance of righting reflex); type: in vivo; details: Mus musculus, ip, read-out: C N S depressive effect (dose required for the disappearance of righting reflex)
Procedure: 4. Central nervous system depressive effect
Each test compound suspended in 0.5% tragacanth-saline solution was injected intraperitoneally to dd-strain male mice (16-24 g). The disappearance of righting reflex was observed under noiseless circumstances. The dose required for the disappearance of righting reflex is indicated with the following notations: […]

dd-strain male mice = details: deaths 72 hours after administration
Procedure: The lethal dose was estimated from the death of animals 72 hours after administration.

[4] = system: writhing syndrome in dd-strain male mice; assay: Analgetic effect (acetic acid writhing syndrome); type: in vivo; details: Mus musculus, ip, read-out: analgetic effect ED50 (95 % C.L.), i.p.
[5] = 10 mg/kg orally, rats, edema volume 3 hours after carrageenin
[6] = 50 mg/kg orally, rats, edema volume 3 hours after carrageenin

Structure (SMILES) | inhibition in vivo at 10 mg/kg [1, 5] [%] | inhibition in vivo at 50 mg/kg [1, 6] [%] | ED50 [2] [mg/kg] | minimal effective dose ([3]; intraperitoneally, mice) [mg/kg] | acute toxicity i.p. (lethal dose) (dd-strain male mice) | acute toxicity p.o. (lethal dose) (dd-strain male mice) [mg/kg] | ED50 [4] [mg/kg] | inhibition in vivo at 10 mg/kg ([1]; 3 h) [%] | inhibition in vivo at 50 mg/kg ([1]; 3 h) [%] | minimal effective dose [3] [mg/kg] | anti-inflammatory effect dose(mg/kg) 10 (inhibition percentage of carrageenin edema) [1, 5]
CC(C)N1CN(c2cccc(Cl)c2)c2ncccc2C1=O | 16 to 30 | 31 to 45 | > 100 |  |  |  |  |  |  |  | 
CC(C)N1CN(c2cccc([N+](=O)[O-])c2)c2ncccc2C1=O | 46 to 60 | 46 to 60 | 4.7 | 100 to 300 | > 1000 mg/kg | < 2000 |  |  |  |  | 
CC(C)N1Cc2cccnc2N(c2cccc(F)c2)C1=O | 31 to 45 | > 61 | 4.5 | 3 to 10 |  |  |  |  |  |  | 
CC(C)N1Cc2cccnc2N(c2cccc(C(F)(F)F)c2)C1=O | < 15 | 46 to 60 | 6.7 | 10 to 30 | > 1000 mg/kg | 2000 |  |  |  |  | 
CC(C)N1Cc2cccnc2N(c2ccc(Cl)c(Cl)c2)C1=O | 46 to 60 | > 61 | 16.3 | 3 to 10 | 1000 mg/kg | 2000 |  |  |  |  | 
Cc1c(N(C)C)c(=O)n(-c2ccccc2)n1C [aminopyrine, reference compound] | < 15 | < 15 |  |  | 100 to 300 mg/kg |  | 56 |  |  |  | 
CN1C(=O)CN=C(c2ccccc2)c2cc(Cl)ccc21 [diazepam, reference compound] |  |  |  |  |  |  |  | < 15 | 16 to 30 | 30 to 100 | 
COCN1CN(c2cccc(Cl)c2)c2ncccc2C1=O [drawing 119/CH2 OCH3] | 16 to 30 | 16 to 30 | > 100 |  |  |  |  |  |  |  | 
CCN1CN(c2cccc(Br)c2)c2ncccc2C1=O [drawing 121/C2 H5] |  | 31 to 45 | > 100 | 30 to 100 | > 1000 mg/kg |  |  |  |  |  | 
CN1CN(c2cccc(Br)c2)c2ncccc2C1=O [drawing 121/CH3] |  | < 15 | > 100 | 30 to 100 | > 1000 mg/kg |  |  |  |  |  | 
CCN1CN(c2cccc(C(F)(F)F)c2)c2ncccc2C1=O [drawing 122/C2 H5] | 16 to 30 | > 61 | > 100 | 30 to 100 | > 1000 mg/kg |  |  |  |  |  | 
CN1CN(c2cccc(C(F)(F)F)c2)c2ncccc2C1=O [drawing 122/CH3] | 16 to 30 | < 15 |  |  |  |  |  |  |  |  | 
CCN1CN(c2cccc([N+](=O)[O-])c2)c2ncccc2C1=O [drawing 123/C2 H5] | 31 to 45 | > 61 | 1.95 | 30 to 100 | 1000 mg/kg | 2000 |  |  |  |  | 
COCN1CN(c2cccc([N+](=O)[O-])c2)c2ncccc2C1=O [drawing 123/CH2 OCH3 . HCl] | 46 to 60 | 46 to 60 | 2.7 |  |  | < 2000 |  |  |  |  | 
CN1CN(c2cccc([N+](=O)[O-])c2)c2ncccc2C1=O [drawing 123/CH3, 1-(m-nitrophenyl)-3-methyl-4-oxo-1,2,3,4-tetrahydropyrido[2,3-d]pyrimidine] | < 15 | 16 to 30 | 22 | > 1000 | > 1000 mg/kg |  |  |  |  |  | 
CCN1Cc2cccnc2N(c2ccccc2)C1=O [drawing 126/C2 H5] | 46 to 60 | 46 to 60 | 2.1 | 3 to 10 | 300 mg/kg |  |  |  |  |  | 
CN1Cc2cccnc2N(c2ccccc2)C1=O [drawing 126/CH3] | 31 to 45 | 46 to 60 | 13 | 3 to 10 |  |  |  |  |  |  | 
CCN1Cc2cccnc2N(c2cccc(F)c2)C1=O [drawing 127/C2 H5] | > 61 | > 61 | 4.4 | < 3 |  |  |  |  |  |  | 

Structure (SMILES) | inhibition in vivo at 10 mg/kg [1, 5] [%] | inhibition in vivo at 50 mg/kg [1, 6] [%] | ED50 [2] [mg/kg] | minimal effective dose ([3]; intraperitoneally, mice) [mg/kg] | acute toxicity i.p. (lethal dose) (dd-strain male mice) | acute toxicity p.o. (lethal dose) (dd-strain male mice) [mg/kg] | ED50 [4] [mg/kg] | inhibition in vivo at 10 mg/kg ([1]; 3 h) [%] | inhibition in vivo at 50 mg/kg ([1]; 3 h) [%] | minimal effective dose [3] [mg/kg] | anti-inflammatory effect dose(mg/kg) 10 (inhibition percentage of carrageenin edema) [1, 5]
CCN1Cc2cccnc2N(c2ccc(F)cc2)C1=O [drawing 129/C2 H5] | 46 to 60 | 46 to 60 | 4.9 | 10 to 30 |  |  |  |  |  |  | 
CN1Cc2cccnc2N(c2ccccc2Cl)C1=O [drawing 130/CH3] |  | 16 to 30 | 44 | 30 to 100 |  |  |  |  |  |  | 
C=CCN1Cc2cccnc2N(c2cccc(Cl)c2)C1=O [drawing 132/CH2 CHCH2] | 46 to 60 | 46 to 60 | 1.2 | 3 to 10 |  |  |  |  |  |  | 
COCN1Cc2cccnc2N(c2cccc(Cl)c2)C1=O [drawing 132/CH2 OCH3] | 46 to 60 | > 61 | 1.6 | 3 to 10 |  |  |  |  |  |  | 
CN1Cc2cccnc2N(c2cccc(Cl)c2)C1=O [drawing 132/CH3, 1-(m-chlorophenyl)-3-methyl-2-oxo-1,2,3,4-tetrahydropyrido[2,3-d]pyrimidine] | 46 to 60 | > 61 | 13 | < 3 |  |  |  |  |  |  | 
CCN1Cc2cccnc2N(c2ccc(Cl)cc2)C1=O [drawing 133/C2 H5] |  | 46 to 60 | 49 | < 3 |  |  |  |  |  |  | + ++
CCN1Cc2cccnc2N(c2cccc(Br)c2)C1=O [drawing 134/C2 H5] | 46 to 60 | 46 to 60 | 2.85 | < 3 | 100 300 mg/kg |  |  |  |  |  | 
CCCN1Cc2cccnc2N(c2cccc(Br)c2)C1=O [drawing 134/CH2 CH2 CH3] | 46 to 60 | 46 to 60 | 2.65 | 3 to 10 |  | < 2000 |  |  |  |  | 
CCN1Cc2cccnc2N(c2cccc(C(F)(F)F)c2)C1=O [drawing 135/C2 H5, 1-(m-trifluoromethylphenyl)-3-ethyl-2-oxo-1,2,3,4-tetrahydropyrido[2,3-d]pyrimidine] | 31 to 45 | 46 to 60 | 6.3 | 3 to 10 |  |  |  |  |  |  | 
O=C1N(CCO)Cc2cccnc2N1c1cccc(C(F)(F)F)c1 [drawing 135/CH2 CH2 OH] |  | 16 to 30 | 55 | > 1000 | > 1000 mg/kg | > 2000 |  |  |  |  | 
O=C(O)CN1Cc2cccnc2N(c2cccc(C(F)(F)F)c2)C1=O [drawing 135/CH2 COOH] |  |  | > 100 | > 1000 | > 1000 mg/kg | > 2000 |  |  |  |  | 
COCN1Cc2cccnc2N(c2cccc(C(F)(F)F)c2)C1=O [drawing 135/CH2 OCH3] |  | 31 to 45 | 8.1 | 10 to 30 |  |  |  |  |  |  | 
CN1Cc2cccnc2N(c2cccc(C(F)(F)F)c2)C1=O [drawing 135/CH3, 1-(m-trifluoromethylphenyl)-3-methyl-2-oxo-1,2,3,4-tetrahydropyrido[2,3-d]pyrimidine] | 16 to 30 | 46 to 60 | 6.6 | 3 to 10 |  | < 500 |  |  |  |  | 
CCN1Cc2cccnc2N(c2ccc(Cl)c(Cl)c2)C1=O [drawing 137/C2 H5] | 46 to 60 | 46 to 60 | 1.3 | < 3 |  |  |  |  |  |  | 
O=C1N(CCF)Cc2cccnc2N1c1ccc(Cl)c(Cl)c1 [drawing 137/CH2 CH2 F] | > 61 |  | 1 | 3 to 10 |  |  |  |  |  |  | 
O=C(O)c1ccccc1Nc1cccc(C(F)(F)F)c1 [flufenamic acid, reference compound] | < 15 | 16 to 30 | 180 | > 1000 | 300 to 1000 mg/kg |  |  |  |  |  | 
Cc1ccccc1-n1c(C)nc2ccccc2c1=O [methaqualone, reference compound] |  |  |  |  |  |  |  |  |  | 10 to 30 | 
CCCCC1C(=O)N(c2ccccc2)N(c2ccccc2)C1=O [phenylbutazone, reference compound] | < 15 | 31 to 45 | 290 | 300 to 1000 |  |  |  |  |  |  | 

Source: patent US4009166A, “Pyrido(2,3-d) pyrimidinones” (Hisamitsu Pharmaceutical Co., Inc., priority 1974, dated 1977)
